# Experiments:
# Bacillus subtilis NadD = Bacillus subtilis NadD (Bacillus subtilis, UniProt P54455); type: biochemical
# CoADR (JCVISYN3A_0887) = type: biochemical, Mycoplasma mycoides subsp. capri; settings: pH 7.5
# human DJ-1 = biological target: T1, human DJ-1 (Homo sapiens, UniProt Q99497); assay: deglycase assay; type: biochemical; settings: cited from earlier work
# T1 construct: gene PARK7; recombinant; details in supplement
# T1 sequence (Q99497 1-189 limits assumed): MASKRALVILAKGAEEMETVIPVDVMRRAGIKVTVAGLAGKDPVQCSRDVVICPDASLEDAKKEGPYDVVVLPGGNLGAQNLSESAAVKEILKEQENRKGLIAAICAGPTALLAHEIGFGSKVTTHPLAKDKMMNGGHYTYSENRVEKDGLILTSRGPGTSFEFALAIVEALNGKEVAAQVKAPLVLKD
# [1] = tested on: JCVISYN3A_0400 (DJ-1 homolog); type: biochemical, Mycoplasma mycoides subsp. capri
# Bacillus subtilis NadD, sequence (P54455 whole entry): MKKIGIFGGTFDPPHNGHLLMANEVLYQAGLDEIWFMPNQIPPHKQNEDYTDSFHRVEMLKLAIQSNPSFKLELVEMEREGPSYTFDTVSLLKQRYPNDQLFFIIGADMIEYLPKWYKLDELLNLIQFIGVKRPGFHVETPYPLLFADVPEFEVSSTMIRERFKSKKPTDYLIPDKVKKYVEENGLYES
smiles,measurement,setting,value
Nc1ncnc2c1ncn2[C@@H]1O[C@H](COP(=O)(O)OP(=O)(O)OP(=O)(O)O)[C@@H](O)[C@H]1O [ATP],relative activity,Bacillus subtilis NadD,whereas B. subtilis NadD strongly preferred ATP
CC(C)(COP(=O)(O)OP(=O)(O)OC[C@H]1O[C@@H](n2cnc3c(N)ncnc32)[C@H](O)[C@@H]1OP(=O)(O)O)[C@@H](O)C(=O)NCCC(=O)NCCSSCCNC(=O)CCNC(=O)[C@H](O)C(C)(C)COP(=O)(O)OP(=O)(O)OC[C@H]1O[C@@H](n2cnc3c(N)ncnc32)[C@H](O)[C@@H]1OP(=O)(O)O [CoAD],Km,CoADR (JCVISYN3A_0887),170 µM
CC(=O)C(O)SCCNC(=O)CCNC(=O)[C@H](O)C(C)(C)COP(=O)(O)OP(=O)(O)OC[C@H]1O[C@@H](n2cnc3c(N)ncnc32)[C@H](O)[C@@H]1OP(=O)(O)O (stereo partly shown) [methylglyoxal-CoA hemithioacetal],Km,human DJ-1,144 ± 64 µM
CC(=O)C=O [methylglyoxal],Km,[1],1230 ± 300 µM
